Here are results for 17 compounds from article PMC6943558, “Covalent Inhibition of the Histamine H3 Receptor” (Molecules, 2019).

The target of assay [1] is T1, hH3R (human histamine H3 receptor) (Homo sapiens, UniProt Q9Y5N1).
T1 construct: gene HRH3; transiently transfected cDNA, HEK293T cell homogenates
The experiment in a line: [3H]NAMH displacement, cell homogenates. In kind it is biochemical.

Assay [2] concerns the target T2, Nanoluc-H4R (histamine H4 receptor) (Homo sapiens, UniProt Q9H3N8).
T2 construct: gene HRH4; NanoLuc reporter fusion (Nluc-H4R); details not in the main text
The experiment in a line: NanoBRET displacement of clobenpropit-BODIPY. The class given is cell-based. The note with it: fluorescent tracer clobenpropit-BODIPY. For orientation: BRET reads energy transfer from a luciferase to a nearby fluorophore.

The target of assay [3] is T1, hH3R (human histamine H3 receptor). The experiment in a line: […]GTPγS binding, cell homogenates. The class given is biochemical. Background: Binding of GTPγS marks nucleotide exchange on a G protein.
Assay [4] shares this target. Briefly: […]GTPγS binding, cell homogenates. The class given is biochemical. This is another data set of the same source.

Like-named read-outs stand apart in the source and are kept apart here.

T1 sequence (Q9Y5N1 whole entry): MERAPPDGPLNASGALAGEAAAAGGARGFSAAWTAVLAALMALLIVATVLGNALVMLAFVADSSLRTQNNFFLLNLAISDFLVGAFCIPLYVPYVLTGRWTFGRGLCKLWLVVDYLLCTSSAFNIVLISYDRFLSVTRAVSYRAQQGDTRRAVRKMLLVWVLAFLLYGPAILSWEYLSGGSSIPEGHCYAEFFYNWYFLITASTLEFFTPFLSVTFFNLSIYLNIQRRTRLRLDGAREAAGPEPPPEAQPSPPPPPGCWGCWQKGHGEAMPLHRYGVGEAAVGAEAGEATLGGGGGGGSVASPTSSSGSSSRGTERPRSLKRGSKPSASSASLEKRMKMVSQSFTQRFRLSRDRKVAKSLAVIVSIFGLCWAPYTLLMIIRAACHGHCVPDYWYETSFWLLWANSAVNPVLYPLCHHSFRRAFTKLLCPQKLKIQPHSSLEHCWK
T2 sequence (Q9H3N8 whole entry, the tested form may be a part): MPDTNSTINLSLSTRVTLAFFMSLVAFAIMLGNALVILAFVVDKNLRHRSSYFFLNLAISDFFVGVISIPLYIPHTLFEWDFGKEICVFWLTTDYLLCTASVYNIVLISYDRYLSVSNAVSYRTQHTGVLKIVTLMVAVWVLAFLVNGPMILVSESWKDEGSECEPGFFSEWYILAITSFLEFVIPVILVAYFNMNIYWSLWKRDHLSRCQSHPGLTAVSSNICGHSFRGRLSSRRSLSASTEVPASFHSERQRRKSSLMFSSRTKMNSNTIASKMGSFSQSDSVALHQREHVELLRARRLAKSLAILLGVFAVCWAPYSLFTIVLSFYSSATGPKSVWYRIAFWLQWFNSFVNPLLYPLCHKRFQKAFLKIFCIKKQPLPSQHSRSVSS

In the case of `C=Cc1nc(-c2ccccc2)cc(N2CCN(C)CC2)n1` [compound 1, VUF14480], in assay [1] (read-out: pKi (converted)), the Ki was more than 10000 nM.

On to `Cc1nc(-c2ccccc2)cc(N2CCN(C)CC2)n1` [compound 2, 2], for which, in assay [1] (read-out: pKi (converted)), the Ki was 79.4 nM. On to `CC(C)c1cc(N2CC(N(C)C)C2)nc(N)n1` [compound 10, 10], for which, in assay [1] (read-out: pKi (converted)), the Ki is 50.1 nM. Take `CC(C)c1cc(N2CCN(C3CCC3)CC2)nc(N)n1` [compound 11, 11]: the Ki in assay [1] (read-out: pKi (converted)) is 200 nM.

For the compound `Cc1cc(N2CCN(C3CCC3)CC2)nc(N)n1` [compound 12, 12], in assay [1] (read-out: pKi (converted)), the Ki is 316 nM. Consider `C#Cc1nc(C)cc(N2CCN(C3CCC3)CC2)n1` [compound 20, 20], for which the Ki in assay [1] (read-out: pKi (converted)) was more than 10000 nM. On the same count and under the same terms, to `C=Cc1nc(C(C)C)cc(N2CC(N(C)C)C2)n1` [compound 21, 21] belongs more than 10000 nM; to `C=Cc1nc(C(C)C)cc(N2CCN(C3CCC3)CC2)n1` [compound 22, 22], 3160 nM. On to `C=Cc1nc(C)cc(N2CCN(C3CCC3)CC2)n1` [compound 23, 23], for which the Ki in assay [1] (read-out: pKi (converted)) was 3980 nM.

Regarding `Cc1nc(C(C)C)cc(N2CC(N(C)C)C2)n1` [compound 34, 34], the Ki in assay [1] (read-out: pKi (converted)) was more than 10000 nM. The same measure, in the same setting: the value for `CCc1nc(C(C)C)cc(N2CC(N(C)C)C2)n1` [compound 35, 35] was more than 10000 nM. For `Cc1nc(C(C)C)cc(N2CCN(C3CCC3)CC2)n1` [compound 36, 36], the Ki in assay [1] (read-out: pKi (converted)) is 1260 nM.

Consider `CCc1nc(C(C)C)cc(N2CCN(C3CCC3)CC2)n1` [compound 37, 37], for which, in assay [1] (read-out: pKi (converted)), the Ki is 3160 nM. Regarding `Nc1cccc(N2CCN(C3CCC3)CC2)c1` [compound 42, 3-(4-Cyclobutylpiperazin-1-yl)aniline], the Ki in assay [1] (read-out: pKi (converted)) was 1260 nM. For the same compound, the “no tracer displacement up to 10 μM” value in assay [2] was more than 10 µM. As to `O=C(CCl)Nc1cccc(N2CCN(C3CCC3)CC2)c1` [compound 43, 43], in assay [1] (read-out: pKi (converted)), the Ki is 631 nM. The IC50 is the midpoint of a concentration-inhibition curve. Higher therefore signals weaker potency in that assay. By EC50 is commonly meant the concentration needed to bring the measured effect to its halfway point. Low values mean greater potency, high ones weaker potency. Consider `S=C=Nc1cccc(N2CCN(C3CCC3)CC2)c1` [compound 44, 1-Cyclobutyl-4-(3-isothiocyanatophenyl)piperazine], for which the Ki in assay [1] (read-out: pKi (converted)) is 316 nM. Also, the IC50 in assay [3] was 794 nM. For the same compound, the “no tracer displacement up to 10 μM” value in assay [2] was more than 10 µM. In addition, in assay [4], the midpoint of the response, the EC50, lay at 79.4 nM.

As to `NCCc1c[nH]cn1` [histamine], the Ki result in assay [1] (50 mM Tris-HCl pH 7.4, 25 °C, vehicle-pretreated homogenates) was “Radioligand displacement curves of [^3H]NAMH with histamine on cell homogenates”.
